Data published in patent US10239869B2, “Sulfonamide compounds as voltage-gated sodium channel modulators” (LUPIN LIMITED, priority 2015, dated 2019).
Read-outs that look alike come from different tables or passages of the source.

Assays:
Nav 1.7 = Nav 1.7 (Homo sapiens (Human), UniProt Q15858); assay: Inhibition of sodium channels, Red Membrane Potential Dye FLIPR assay, veratridine depolarization; assay type: cell-based; conditions: HEK-293 cells overexpressing the channel; for IC50: read-out: Nav1.7 IC50
Chain of Nav 1.7 (Q15858 whole entry): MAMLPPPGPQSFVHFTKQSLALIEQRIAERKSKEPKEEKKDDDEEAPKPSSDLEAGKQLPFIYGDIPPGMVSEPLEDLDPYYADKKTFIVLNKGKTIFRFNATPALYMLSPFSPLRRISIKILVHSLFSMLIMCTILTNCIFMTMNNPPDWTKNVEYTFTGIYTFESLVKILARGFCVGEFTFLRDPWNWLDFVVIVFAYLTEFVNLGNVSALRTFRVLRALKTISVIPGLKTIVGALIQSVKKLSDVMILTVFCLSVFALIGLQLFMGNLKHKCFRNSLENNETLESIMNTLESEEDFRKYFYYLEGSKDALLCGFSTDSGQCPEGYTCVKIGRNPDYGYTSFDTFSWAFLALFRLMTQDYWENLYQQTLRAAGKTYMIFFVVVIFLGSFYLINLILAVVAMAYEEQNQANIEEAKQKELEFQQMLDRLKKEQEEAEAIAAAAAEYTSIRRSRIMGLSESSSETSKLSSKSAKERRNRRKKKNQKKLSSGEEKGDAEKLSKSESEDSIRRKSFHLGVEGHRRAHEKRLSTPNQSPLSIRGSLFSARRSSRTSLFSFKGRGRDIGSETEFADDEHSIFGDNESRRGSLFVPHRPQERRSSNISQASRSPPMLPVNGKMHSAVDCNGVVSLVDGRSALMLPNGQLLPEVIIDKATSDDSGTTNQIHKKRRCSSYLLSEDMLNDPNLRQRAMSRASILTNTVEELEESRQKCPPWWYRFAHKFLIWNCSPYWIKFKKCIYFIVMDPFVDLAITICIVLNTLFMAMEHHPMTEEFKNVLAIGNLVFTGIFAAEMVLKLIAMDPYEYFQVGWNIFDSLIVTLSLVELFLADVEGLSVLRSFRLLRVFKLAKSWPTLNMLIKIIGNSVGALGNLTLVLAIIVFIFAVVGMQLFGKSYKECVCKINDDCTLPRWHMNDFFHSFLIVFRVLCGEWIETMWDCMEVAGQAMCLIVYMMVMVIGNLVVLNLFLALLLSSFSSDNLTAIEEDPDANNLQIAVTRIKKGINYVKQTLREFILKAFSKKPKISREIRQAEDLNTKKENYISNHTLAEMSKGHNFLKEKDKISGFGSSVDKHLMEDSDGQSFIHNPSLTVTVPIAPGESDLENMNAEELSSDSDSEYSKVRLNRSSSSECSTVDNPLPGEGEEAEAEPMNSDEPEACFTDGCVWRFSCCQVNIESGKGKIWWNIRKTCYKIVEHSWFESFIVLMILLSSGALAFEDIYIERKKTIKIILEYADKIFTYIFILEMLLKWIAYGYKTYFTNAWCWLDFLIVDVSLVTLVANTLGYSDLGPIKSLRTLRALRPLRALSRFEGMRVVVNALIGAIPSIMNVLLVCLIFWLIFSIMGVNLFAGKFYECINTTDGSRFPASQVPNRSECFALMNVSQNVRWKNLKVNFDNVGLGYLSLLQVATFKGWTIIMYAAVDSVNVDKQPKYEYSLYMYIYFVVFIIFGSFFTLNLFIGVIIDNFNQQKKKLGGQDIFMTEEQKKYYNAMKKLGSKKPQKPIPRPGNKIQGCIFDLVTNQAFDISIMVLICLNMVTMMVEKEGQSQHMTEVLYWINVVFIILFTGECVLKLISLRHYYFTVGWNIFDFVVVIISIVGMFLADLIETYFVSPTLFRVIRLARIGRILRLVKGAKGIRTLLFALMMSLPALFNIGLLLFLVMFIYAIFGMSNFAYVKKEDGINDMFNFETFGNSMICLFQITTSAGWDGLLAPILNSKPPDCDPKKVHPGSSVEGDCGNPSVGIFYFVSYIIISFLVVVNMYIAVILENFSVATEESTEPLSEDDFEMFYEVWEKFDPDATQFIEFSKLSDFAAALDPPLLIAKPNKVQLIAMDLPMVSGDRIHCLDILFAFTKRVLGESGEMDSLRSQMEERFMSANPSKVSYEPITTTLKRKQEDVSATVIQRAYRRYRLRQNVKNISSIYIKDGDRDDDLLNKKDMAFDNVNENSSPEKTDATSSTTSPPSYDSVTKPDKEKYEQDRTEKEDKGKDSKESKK

Nav 1.5 = Nav 1.5 (Homo sapiens (Human), UniProt Q14524); assay: as above; assay type: cell-based; conditions: HEK-293 cells overexpressing the channel
Chain of Nav 1.5 (Q14524 whole entry): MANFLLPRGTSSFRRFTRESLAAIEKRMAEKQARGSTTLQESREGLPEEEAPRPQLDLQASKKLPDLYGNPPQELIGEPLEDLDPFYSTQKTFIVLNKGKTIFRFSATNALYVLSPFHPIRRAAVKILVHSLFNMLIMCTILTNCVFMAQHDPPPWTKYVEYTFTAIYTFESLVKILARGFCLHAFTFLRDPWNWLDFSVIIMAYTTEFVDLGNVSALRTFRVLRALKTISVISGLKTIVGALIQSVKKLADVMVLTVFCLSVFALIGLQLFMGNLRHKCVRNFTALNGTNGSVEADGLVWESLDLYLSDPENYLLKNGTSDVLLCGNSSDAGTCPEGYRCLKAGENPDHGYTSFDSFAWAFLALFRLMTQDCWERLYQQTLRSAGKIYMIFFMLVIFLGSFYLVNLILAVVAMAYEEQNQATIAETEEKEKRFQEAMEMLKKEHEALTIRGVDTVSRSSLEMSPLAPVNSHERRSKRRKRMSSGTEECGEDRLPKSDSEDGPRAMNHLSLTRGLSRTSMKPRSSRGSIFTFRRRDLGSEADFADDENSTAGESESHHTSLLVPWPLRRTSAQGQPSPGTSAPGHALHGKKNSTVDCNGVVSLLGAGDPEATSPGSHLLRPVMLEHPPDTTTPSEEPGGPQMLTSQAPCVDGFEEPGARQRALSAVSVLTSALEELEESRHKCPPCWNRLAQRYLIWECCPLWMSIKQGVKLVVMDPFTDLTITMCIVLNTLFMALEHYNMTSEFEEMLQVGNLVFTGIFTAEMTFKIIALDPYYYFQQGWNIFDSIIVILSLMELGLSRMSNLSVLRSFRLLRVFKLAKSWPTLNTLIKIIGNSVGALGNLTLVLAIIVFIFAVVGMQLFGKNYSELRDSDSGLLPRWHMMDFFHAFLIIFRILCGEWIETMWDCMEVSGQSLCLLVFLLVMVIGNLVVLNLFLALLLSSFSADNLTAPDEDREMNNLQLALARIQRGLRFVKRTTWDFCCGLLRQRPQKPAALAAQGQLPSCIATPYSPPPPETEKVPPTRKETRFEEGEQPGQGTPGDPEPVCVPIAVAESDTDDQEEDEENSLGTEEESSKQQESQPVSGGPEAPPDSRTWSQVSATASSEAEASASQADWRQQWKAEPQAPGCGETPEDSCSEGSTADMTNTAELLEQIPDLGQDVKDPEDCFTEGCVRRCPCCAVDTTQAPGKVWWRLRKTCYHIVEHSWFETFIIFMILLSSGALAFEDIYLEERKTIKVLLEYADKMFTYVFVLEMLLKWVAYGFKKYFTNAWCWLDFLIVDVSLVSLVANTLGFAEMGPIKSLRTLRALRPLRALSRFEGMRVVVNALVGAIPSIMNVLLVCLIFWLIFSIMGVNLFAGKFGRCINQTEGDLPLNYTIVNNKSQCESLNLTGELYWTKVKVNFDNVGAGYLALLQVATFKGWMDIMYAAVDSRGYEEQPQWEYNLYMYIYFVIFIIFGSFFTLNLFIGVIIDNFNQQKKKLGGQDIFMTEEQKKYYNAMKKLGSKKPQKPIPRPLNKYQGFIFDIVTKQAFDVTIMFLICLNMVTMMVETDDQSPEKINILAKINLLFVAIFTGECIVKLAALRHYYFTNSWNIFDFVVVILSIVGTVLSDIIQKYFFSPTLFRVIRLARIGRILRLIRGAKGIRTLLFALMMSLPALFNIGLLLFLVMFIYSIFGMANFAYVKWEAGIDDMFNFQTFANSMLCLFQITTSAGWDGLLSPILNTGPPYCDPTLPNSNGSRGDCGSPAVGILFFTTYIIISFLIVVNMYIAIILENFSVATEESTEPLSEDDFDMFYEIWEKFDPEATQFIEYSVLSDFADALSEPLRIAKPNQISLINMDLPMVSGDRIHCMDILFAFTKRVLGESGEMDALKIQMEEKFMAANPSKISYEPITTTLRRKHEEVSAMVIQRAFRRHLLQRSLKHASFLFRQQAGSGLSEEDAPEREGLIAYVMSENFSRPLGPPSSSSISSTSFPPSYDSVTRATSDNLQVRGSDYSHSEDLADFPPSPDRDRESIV

[1] = read-out: Nav1.5 IC50 (bound given in μM)

Compound	Nav1.7 inhibition @ 10 μM (Nav 1.7) [%]	IC50 (Nav 1.5; [1]) [µM]	Nav1.5 % inhibition @ 10 μM (Nav 1.5) [%]	IC50 (Nav 1.7) [nM]	IC50 (Nav 1.5; read-out: Nav1.5 IC50) [µM]
O=S(=O)(Nc1ccncn1)c1ccc2c(c1)OCC[C@H]2c1ccc(C(F)(F)F)cc1-c1ccc(F)cc1 [Example 47, (S&R)-4-(4′-Fluoro-5-(trifluoromethyl)-[1,1′-biphenyl]-2-yl)-N-(pyrimidin-4-yl)chromane-7-sulfonamide]	64	> 10	–	–	–
O=S(=O)(Nc1cccnn1)c1ccc2c(c1)OCCC2c1ccc(C(F)(F)F)cc1-n1ccnn1 (stereo not drawn) [Example 53, (S&R)-4-(2-(1H-1,2,3-Triazol-1-yl)-4-(trifluoromethyl)phenyl)-N-(pyridazin-3-yl)chromane-7-sulfonamide]	70	–	44	–	–
O=S(=O)(Nc1cccnn1)c1ccc2c(c1)OCC[C@@H]2c1ccc(C(F)(F)F)cc1-n1ccnn1 [Example 54, (S&R)-4-(2-(1H-1,2,3-Triazol-1-yl)-4-(trifluoromethyl)phenyl)-N-(pyridazin-3-yl)chromane-7-sulfonamide]	–	> 10	–	706	–
Cc1nc(-c2cc(C(F)(F)F)ccc2[C@@H]2CCOc3cc(S(=O)(=O)Nc4cccc(F)n4)ccc32)cs1 [Example 61]	–	> 10	–	568	–
Cc1nc(-c2cc(C(F)(F)F)ccc2[C@H]2CCOc3cc(S(=O)(=O)Nc4cccc(F)n4)ccc32)cs1 [Example 62]	–	–	42	5	–
Cc1nc(-c2cc(C(F)(F)F)ccc2[C@@H]2CCOc3cc(S(=O)(=O)Nc4ncccn4)ccc32)cs1 [Example 63, (S&R)-4-(2-(2-Methylthiazol-4-yl)-4-(trifluoromethyl)phenyl)-N-(pyrimidin-2-yl)chroman-7-sulfonamide]	–	> 10	–	526	–
Cc1nc(-c2cc(C(F)(F)F)ccc2[C@H]2CCOc3cc(S(=O)(=O)Nc4ncccn4)ccc32)cs1 [Example 64, (S&R)-4-(2-(2-Methylthiazol-4-yl)-4-(trifluoromethyl)phenyl)-N-(pyrimidin-2-yl)chroman-7-sulfonamide]	–	> 10	–	3	–
Cc1nc(-c2cc(C(F)(F)F)ccc2[C@@H]2CCOc3cc(S(=O)(=O)Nc4ccncn4)ccc32)cs1 [Example 67, (S&R)-4-(2-(2-Methylthiazol-4-yl)-4-(trifluoromethyl)phenyl)-N-(pyrimidin-4-yl)chroman-7-sulfonamide]	–	> 10	–	30	–
Cc1nc(-c2cc(C(F)(F)F)ccc2[C@H]2CCOc3cc(S(=O)(=O)Nc4ccncn4)ccc32)cs1 [Example 68, (S&R)-4-(2-(2-Methylthiazol-4-yl)-4-(trifluoromethyl)phenyl)-N-(pyrimidin-4-yl)chroman-7-sulfonamide]	–	–	29	0.9	–
Cc1nc(-c2cc(C(F)(F)F)ccc2[C@H]2CCOc3cc(S(=O)(=O)Nc4cccnn4)ccc32)cs1 [Example 70, (S&R)-4-(2-(2-Methylthiazol-4-yl)-4-(trifluoromethyl)phenyl)-N-(pyridazin-3-yl)chroman-7-sulfonamide]	–	> 10	–	115	–
Cc1nc(-c2cc(C(F)(F)F)ccc2[C@@H]2CCOc3cc(S(=O)(=O)Nc4cccnn4)ccc32)co1 [Example 79, (S&R)-4-(2-(2-methyloxazol-4-yl)-4-(trifluoromethyl)phenyl)-N-(pyridazin-3-yl)chroman-7-sulfonamide]	–	> 10	–	2520	–
Cc1nc(-c2cc(C(F)(F)F)ccc2[C@H]2CCOc3cc(S(=O)(=O)Nc4cccnn4)ccc32)co1 [Example 80, (S&R)-4-(2-(2-methyloxazol-4-yl)-4-(trifluoromethyl)phenyl)-N-(pyridazin-3-yl)chroman-7-sulfonamide]	–	–	53	114	–
CS(=O)(=O)CCc1cc(C(F)(F)F)ccc1[C@@H]1CCOc2cc(S(=O)(=O)Nc3cccc(F)n3)ccc21 [Example 81, (S&R)—N-(6-Fluoropyridin-2-yl)-4-(2-(2-(methylsulfonyl)ethyl)-4-(trifluoromethyl)phenyl)chroman-7-sulfonamide]	–	–	34	993	–
CS(=O)(=O)CCc1cc(C(F)(F)F)ccc1[C@H]1CCOc2cc(S(=O)(=O)Nc3cccc(F)n3)ccc21 [Example 82, (S&R)—N-(6-Fluoropyridin-2-yl)-4-(2-(2-(methylsulfonyl)ethyl)-4-(trifluoromethyl)phenyl)chroman-7-sulfonamide]	–	> 10	–	20	–
CS(=O)(=O)CCc1cc(C(F)(F)F)ccc1[C@@H]1CCOc2cc(S(=O)(=O)Nc3ncccn3)ccc21 [Example 83, (S&R)-4-(2-(2-(Methylsulfonyl)ethyl)-4-(trifluoromethyl)phenyl)-N-(pyrimidin-2-yl)chroman-7-sulfonamide]	71	> 10	–	–	–
CS(=O)(=O)CCc1cc(C(F)(F)F)ccc1[C@H]1CCOc2cc(S(=O)(=O)Nc3ncccn3)ccc21 [Example 84, (S&R)-4-(2-(2-(Methylsulfonyl)ethyl)-4-(trifluoromethyl)phenyl)-N-(pyrimidin-2-yl)chroman-7-sulfonamide]	–	> 10	–	2580	–
CS(=O)(=O)CCc1cc(C(F)(F)F)ccc1[C@@H]1CCOc2cc(S(=O)(=O)Nc3ncc(F)cn3)ccc21 [Example 85, (S&R)—N-(5-Fluoropyrimidin-2-yl)-4-(2-(2-(methylsulfonyl)ethyl)-4-(trifluoromethyl)phenyl)chroman-7-sulfonamide]	–	> 10	–	2720	–
CS(=O)(=O)CCc1cc(C(F)(F)F)ccc1[C@H]1CCOc2cc(S(=O)(=O)Nc3ncc(F)cn3)ccc21 [Example 86, (S&R)—N-(5-Fluoropyrimidin-2-yl)-4-(2-(2-(methylsulfonyl)ethyl)-4-(trifluoromethyl)phenyl)chroman-7-sulfonamide]	–	> 10	–	2390	–
CS(=O)(=O)CCc1cc(C(F)(F)F)ccc1[C@@H]1CCOc2cc(S(=O)(=O)Nc3ccncn3)ccc21 [Example 87, (S&R)-4-(2-(2-(Methylsulfonyl)ethyl)-4-(trifluoromethyl)phenyl)-N-(pyrimidin-4-yl) chroman-7-sulfonamide]	58	> 10	–	–	–
CS(=O)(=O)CCc1cc(C(F)(F)F)ccc1[C@H]1CCOc2cc(S(=O)(=O)Nc3ccncn3)ccc21 [Example 88, (S&R)-4-(2-(2-(Methylsulfonyl)ethyl)-4-(trifluoromethyl)phenyl)-N-(pyrimidin-4-yl) chroman-7-sulfonamide]	–	> 10	–	626	–
O=S(=O)(Nc1cccc(F)n1)c1ccc2c(c1)OCC[C@H]2c1ccc(C(F)(F)F)cc1-n1cccn1 [Example 89, (S&R)-4-(2-(1H-pyrazol-1-yl)-4-(trifluoromethyl)phenyl)-N-(6-fluoropyridin-2-yl)chroman-7-sulfonamide]	–	> 10	–	108	–
O=S(=O)(Nc1cccc(F)n1)c1ccc2c(c1)OCC[C@@H]2c1ccc(C(F)(F)F)cc1-n1cccn1 [Example 90, (S&R)-4-(2-(1H-pyrazol-1-yl)-4-(trifluoromethyl)phenyl)-N-(6-fluoropyridin-2-yl)chroman-7-sulfonamide]	–	> 10	–	15	–
CC(C)Oc1ccc(-c2cc(C(F)(F)F)ccc2[C@@H]2CCOc3cc(S(=O)(=O)Nc4ncccn4)ccc32)cn1 [Example 97, (S&R)-4-(2-(6-isopropoxypyridin-3-yl)-4-(trifluoromethyl)phenyl)-N-(pyrimidin-2-yl)chroman-7-sulfonamide]	–	–	71	170	–
CC(C)Oc1ccc(-c2cc(C(F)(F)F)ccc2[C@H]2CCOc3cc(S(=O)(=O)Nc4ncccn4)ccc32)cn1 [Example 98, (S&R)-4-(2-(6-isopropoxypyridin-3-yl)-4-(trifluoromethyl)phenyl)-N-(pyrimidin-2-yl)chroman-7-sulfonamide]	–	–	–	11	0.432
CC(C)Oc1ccc(-c2cc(C(F)(F)F)ccc2[C@@H]2CCOc3cc(S(=O)(=O)Nc4ncc(F)cn4)ccc32)cn1 [Example 99, (S&R)—N-(5-fluoropyrimidin-2-yl)-4-(2-(6-isopropoxypyridin-3-yl)-4-(trifluoromethyl)phenyl)chroman-7-sulfonamide]	–	–	80	1060	–
CC(C)Oc1ccc(-c2cc(C(F)(F)F)ccc2[C@H]2CCOc3cc(S(=O)(=O)Nc4ncc(F)cn4)ccc32)cn1 [Example 100, (S&R)—N-(5-fluoropyrimidin-2-yl)-4-(2-(6-isopropoxypyridin-3-yl)-4-(trifluoromethyl)phenyl)chroman-7-sulfonamide]	–	> 10	–	75	–
CCOc1ccc(-c2cc(C(F)(F)F)ccc2[C@@H]2CCOc3cc(S(=O)(=O)Nc4ncc(F)cn4)ccc32)cn1 [Example 101, (S&R)-4-(2-(6-ethoxypyridin-3-yl)-4-(trifluoromethyl)phenyl)-N-(5-fluoropyrimidin-2-yl)chroman-7-sulfonamide]	–	–	51	2590	–
CCOc1ccc(-c2cc(C(F)(F)F)ccc2[C@H]2CCOc3cc(S(=O)(=O)Nc4ncc(F)cn4)ccc32)cn1 [Example 102, (S&R)-4-(2-(6-ethoxypyridin-3-yl)-4-(trifluoromethyl)phenyl)-N-(5-fluoropyrimidin-2-yl)chroman-7-sulfonamide]	–	> 10	–	39	–
O=S(=O)(Nc1ncccn1)c1ccc2c(c1)OCC[C@H]2c1ccc(C(F)(F)F)cc1C1CCOCC1 [Example 109, (S&R)—N-(pyrimidin-2-yl)-4-(2-(tetrahydro-2H-pyran-4-yl)-4-(trifluoromethyl)phenyl)chroman-7-sulfonamide]	–	> 10	–	740	–
O=S(=O)(Nc1ncccn1)c1ccc2c(c1)OCC[C@@H]2c1ccc(C(F)(F)F)cc1C1CCOCC1 [Example 110, (S&R)—N-(pyrimidin-2-yl)-4-(2-(tetrahydro-2H-pyran-4-yl)-4-(trifluoromethyl)phenyl)chroman-7-sulfonamide]	–	–	–	156	1.75
